Source: ChEMBL document CHEMBL1201862, “PubChem BioAssay data set” (2004)
The source made the active and inactive calls.

Tests used:
[1] = molecular target: Alkaline phosphatase, placental type (Homo sapiens, UniProt P05187); test: PLAP enzyme inhibitors, confirmation, biochemical, luminescence (AID 1512); type: functional
[2] = human group III sPLA2 inhibitors, dose response, biochemical, QFRET, IC50 (AID 743457);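 also: green fluorescence rise as the enzyme cleaves BODIPY PC-A2 in liposomes; potency for inhibition of the enzyme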
[3] = molecular target: T1, Mucolipin-3 (Homo sapiens, UniProt Q8TDD5); test: Fluorescence counterscreen assay for […] agonists: dose response cell-based high-throughput screening assay to identify agonists of the transient receptor potential channel ML3 (TRPML3). [Related pubchem assays: 1424, 1448 ]; type: functional
T1 sequence (Q8TDD5 whole entry): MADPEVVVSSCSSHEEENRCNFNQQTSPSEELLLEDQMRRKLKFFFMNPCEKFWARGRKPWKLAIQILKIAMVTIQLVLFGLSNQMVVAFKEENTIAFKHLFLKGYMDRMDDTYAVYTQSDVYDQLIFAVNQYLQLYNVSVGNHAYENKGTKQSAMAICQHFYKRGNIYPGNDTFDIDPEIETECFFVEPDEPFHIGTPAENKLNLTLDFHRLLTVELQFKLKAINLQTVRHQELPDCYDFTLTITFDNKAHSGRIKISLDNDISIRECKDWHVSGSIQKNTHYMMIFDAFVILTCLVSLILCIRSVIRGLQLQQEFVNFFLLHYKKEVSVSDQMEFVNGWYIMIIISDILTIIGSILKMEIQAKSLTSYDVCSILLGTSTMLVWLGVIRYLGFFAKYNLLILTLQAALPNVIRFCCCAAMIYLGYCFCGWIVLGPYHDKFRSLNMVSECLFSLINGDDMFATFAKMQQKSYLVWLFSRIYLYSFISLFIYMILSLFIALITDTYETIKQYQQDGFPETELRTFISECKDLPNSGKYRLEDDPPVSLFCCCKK

[4] = molecular target: Ion channel NompC (Danio rerio, UniProt Q7T1G6); test: Dose response cell-based high-throughput screening assay for agonists of the transient receptor potential channel N1 (TRPN1). [Related pubchem assays (depositor defined):AID1424, AID1448]; type: functional
Sequence of Ion channel NompC (Q7T1G6 whole entry): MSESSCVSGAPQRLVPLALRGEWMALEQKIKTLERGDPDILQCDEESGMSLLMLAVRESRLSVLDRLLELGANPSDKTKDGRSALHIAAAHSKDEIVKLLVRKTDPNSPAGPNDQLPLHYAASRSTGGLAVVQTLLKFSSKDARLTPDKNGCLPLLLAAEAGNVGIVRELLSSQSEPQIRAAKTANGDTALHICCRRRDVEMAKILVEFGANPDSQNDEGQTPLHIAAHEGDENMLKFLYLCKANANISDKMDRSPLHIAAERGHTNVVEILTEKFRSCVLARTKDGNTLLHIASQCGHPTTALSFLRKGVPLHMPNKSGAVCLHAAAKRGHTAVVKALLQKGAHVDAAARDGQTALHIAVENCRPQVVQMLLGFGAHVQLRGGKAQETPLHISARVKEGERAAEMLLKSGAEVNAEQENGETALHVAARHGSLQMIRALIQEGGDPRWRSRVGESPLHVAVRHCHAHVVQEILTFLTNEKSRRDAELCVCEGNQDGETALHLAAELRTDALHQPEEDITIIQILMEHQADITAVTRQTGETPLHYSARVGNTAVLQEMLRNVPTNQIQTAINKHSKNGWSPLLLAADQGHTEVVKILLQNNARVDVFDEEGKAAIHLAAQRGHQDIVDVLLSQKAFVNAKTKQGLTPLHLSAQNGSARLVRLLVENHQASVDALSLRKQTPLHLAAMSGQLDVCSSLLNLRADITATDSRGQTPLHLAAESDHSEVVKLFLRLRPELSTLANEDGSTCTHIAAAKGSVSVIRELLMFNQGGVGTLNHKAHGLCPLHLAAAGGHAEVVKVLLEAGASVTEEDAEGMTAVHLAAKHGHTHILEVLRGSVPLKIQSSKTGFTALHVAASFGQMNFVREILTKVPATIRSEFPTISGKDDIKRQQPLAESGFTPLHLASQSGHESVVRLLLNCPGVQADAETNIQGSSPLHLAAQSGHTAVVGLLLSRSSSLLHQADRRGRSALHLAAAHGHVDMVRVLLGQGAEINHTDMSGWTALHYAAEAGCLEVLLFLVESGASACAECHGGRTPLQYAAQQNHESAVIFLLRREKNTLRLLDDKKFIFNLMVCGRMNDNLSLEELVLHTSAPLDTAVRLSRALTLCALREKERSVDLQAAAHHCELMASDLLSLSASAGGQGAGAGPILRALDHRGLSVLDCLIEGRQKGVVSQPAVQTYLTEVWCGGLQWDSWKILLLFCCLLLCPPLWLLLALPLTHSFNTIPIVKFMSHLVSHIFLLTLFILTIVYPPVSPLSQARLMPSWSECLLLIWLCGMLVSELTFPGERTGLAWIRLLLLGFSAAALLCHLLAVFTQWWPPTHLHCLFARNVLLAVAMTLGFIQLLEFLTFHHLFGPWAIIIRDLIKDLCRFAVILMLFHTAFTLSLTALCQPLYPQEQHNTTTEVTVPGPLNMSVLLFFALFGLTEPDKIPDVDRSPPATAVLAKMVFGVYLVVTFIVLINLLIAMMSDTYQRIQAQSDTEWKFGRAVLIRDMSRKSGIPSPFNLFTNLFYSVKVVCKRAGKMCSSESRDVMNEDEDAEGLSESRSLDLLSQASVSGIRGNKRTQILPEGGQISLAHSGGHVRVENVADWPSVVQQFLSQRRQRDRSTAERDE

Sequence of Alkaline phosphatase, placental type (P05187 whole entry): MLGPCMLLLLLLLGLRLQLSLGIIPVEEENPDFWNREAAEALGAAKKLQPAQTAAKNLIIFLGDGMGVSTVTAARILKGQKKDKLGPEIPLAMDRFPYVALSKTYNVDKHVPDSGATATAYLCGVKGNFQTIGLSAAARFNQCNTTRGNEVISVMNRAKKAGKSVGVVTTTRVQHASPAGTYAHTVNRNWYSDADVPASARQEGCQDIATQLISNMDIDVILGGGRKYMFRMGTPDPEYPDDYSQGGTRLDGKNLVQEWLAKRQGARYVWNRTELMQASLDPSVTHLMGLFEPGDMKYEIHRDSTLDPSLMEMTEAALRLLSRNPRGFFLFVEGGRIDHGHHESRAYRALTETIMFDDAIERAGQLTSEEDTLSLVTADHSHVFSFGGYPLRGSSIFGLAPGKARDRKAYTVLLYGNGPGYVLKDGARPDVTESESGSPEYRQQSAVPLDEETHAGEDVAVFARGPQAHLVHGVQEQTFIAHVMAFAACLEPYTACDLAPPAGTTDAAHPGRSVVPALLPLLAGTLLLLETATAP

| IC50 [1] | IC50 [2] | EC50 [3] | EC50 [4] | SMILES |
| --- | --- | --- | --- | --- |
| > 100 µM (inactive) | > 122 µM (inactive) |  |  | CCN=C(S)NN=C(S)NCc1ccccc1 |
|  |  | > 29.9 µM (not active) | > 29.9 µM (inactive) | CC(C)S(=O)(=O)c1csc(NC(=O)Nc2ccc(Cl)cc2)c1 |
